SMILES strings stand for the structures. Like-named read-outs stand apart in the source and are kept apart here.

The data set has as its system Human lung adenocarcinoma cell line A549. Nature of the data set: In vitro cytotoxicity test of camptothecin payloads (CellTiter-Glo). The following applies: for IC50: Homo sapiens, A549, 72 h, read-out: A549 Cytotoxicity IC50 (nM). Type of data set: cell-based. As for the experimental part: Human lung adenocarcinoma cell line A549 was used to evaluate the cytotoxicity of small molecule fragment of the present invention. A549 cells were seeded to a 96-well plate at 2000 cells per well.
A general note: In ATP-based viability assays light output follows the ATP content of the culture.

The IC50 is the concentration at which inhibition is half-maximal. As to `CC[C@@]1(O)C(=O)OCc2c1cc1n(c2=O)Cc2c-1nc1cc(F)c(C)c3c1c2[C@@H](NC(=O)CO)CC3` [Dxd, reference compound], the half-inhibitory concentration (IC50) turned out to be 78 nM.
Turning to `CC[C@@]1(O)C(=O)OCc2c1cc1n(c2=O)Cc2c-1nc1cc(F)c(C)cc1c2CN1CC[C@@H](O)C1=O` [Example 1, (S)-4-ethyl-8-fluoro-4-hydroxy-11-(((R)-3-hydroxy-2-oxopyrrolidin-1-yl)methyl)-9-methyl-1H-pyrano[3′,4′:6,7] indolizino[1,2-b]quinoline-3,14(4H,12H)-dione], the IC50 was found to be 515 nM. The “relative A549 cytotoxic potency in words” value (comparison between analogs of Table 1) is recorded as “much less potent”.
As to `CC[C@@]1(O)C(=O)OCc2c1cc1n(c2=O)Cc2c-1nc1cc(F)c(C)cc1c2CN1CCC(O)C1` (stereo partly drawn) [Example 2, (4S)-4-ethyl-8-fluoro-4-hydroxy-11-((3-hydroxypyrrolidin-1-yl)methyl)-9-methyl-1H-pyrano[3′,4′:6,7] indolizino[1,2-b]quinoline-3,14(4H,12H)-dione], the IC50 is 138 nM.
Take `CC[C@@]1(O)C(=O)OCc2c1cc1n(c2=O)Cc2c-1nc1cc(F)c(C)cc1c2CN1CCCC1CO` (stereo partly drawn) [Example 5, (4S)-4-ethyl-8-fluoro-4-hydroxy-11-((2-(hydroxymethyl)pyrrolidin-1-yl)methyl)-9-methyl-1H-pyrano[3′,4′:6,7] indolizino[1,2-b]quinoline-3,14(4H,12H)-dione]: the IC50 was 65 nM.
As for `CC[C@@]1(O)C(=O)OCc2c1cc1n(c2=O)Cc2c-1nc1cc(F)c(C)cc1c2CN1CCC(CO)C1` (stereo partly drawn) [Example 8, (4S)-4-ethyl-8-fluoro-4-hydroxy-11-((3-(hydroxymethyl)pyrrolidin-1-yl)methyl)-9-methyl-1H-pyrano[3′,4′:6,7] indolizino[1,2-b]quinoline-3,14(4H,12H)-dione], the half-inhibitory concentration (IC50) was 82 nM.
Same read-out and setting: under `CC[C@@]1(O)C(=O)OCc2c1cc1n(c2=O)Cc2c-1nc1cc(F)c(C)cc1c2CN1CC(O)C1` [Example 9, (S)-4-ethyl-8-fluoro-4-hydroxy-11-((3-hydroxyazetidin-1-yl)methyl)-9-methyl-1H-pyrano[3′,4′:6,7] indolizino[1,2-b]quinoline-3,14(4H,12H)-dione] stands 550 nM.
On to `CC[C@@]1(O)C(=O)OCc2c1cc1n(c2=O)Cc2c-1nc1cc(F)c(C)cc1c2CN1CCC(CO)CC1` [Example 10, (S)-4-ethyl-8-fluoro-4-hydroxy-11-((4-(hydroxymethyl)piperidin-1-yl)methyl)-9-methyl-1H-pyrano[3′,4′:6,7] indolizino[1,2-b]quinoline-3,14(4H,12H)-dione], for which the 50% inhibitory concentration (IC50) was 67 nM. Besides, for the setting “human, 3 days”, the “relative A549 cytotoxic potency in words” value is given as “less potent than Example 17”.
On the same counts, the results for `CC[C@@]1(O)C(=O)OCc2c1cc1n(c2=O)Cc2c-1nc1cc(F)c(C)cc1c2CN1CCCCC1CO` (stereo partly drawn) [Example 11, (4S)-4-ethyl-8-fluoro-4-hydroxy-11-((2-(hydroxymethyl)piperidin-1-yl)methyl)-9-methyl-1H-pyrano[3′,4′:6,7] indolizino[1,2-b]quinoline-3,14(4H,12H)-dione] are 60 nM and “less potent than Example 17”.
With `CC[C@@]1(O)C(=O)OCc2c1cc1n(c2=O)Cc2c-1nc1cc(F)c(C)cc1c2CN1CCCC(CO)C1` (stereo partly drawn) [Example 12, (4S)-4-ethyl-8-fluoro-4-hydroxy-11-((3-(hydroxymethyl)piperidin-1-yl)methyl)-9-methyl-1H-pyrano[3′,4′:6,7] indolizino[1,2-b]quinoline-3,14(4H,12H)-dione], the IC50 was found to be 90 nM. In addition, the “relative A549 cytotoxic potency in words” value (human, 3 days) is reported as “less potent than Example 17”.
Consider `CC[C@@]1(O)C(=O)OCc2c1cc1n(c2=O)Cc2c-1nc1cc(F)c(C)cc1c2CN1CCC(C(C)O)CC1` (stereo partly drawn) [Example 13, (4S)-4-ethyl-8-fluoro-4-hydroxy-11-((4-(1-hydroxyethyl)piperidin-1-yl)methyl)-9-methyl-1H-pyrano[3′,4′:6,7] indolizino[1,2-b]quinoline-3,14(4H,12H)-dione], for which the half-inhibitory concentration (IC50) turned out to be 33 nM.
The same measure, in the same setting: under `CC[C@@]1(O)C(=O)OCc2c1cc1n(c2=O)Cc2c-1nc1cc(F)c(C)cc1c2CN1CCC([C@@H](C)O)CC1` [Example 15, (S)-4-ethyl-8-fluoro-4-hydroxy-11-((4-((R)-1-hydroxyethyl)piperidin-1-yl)methyl)-9-methyl-1H-pyrano[3′,4′:6,7] indolizino[1,2-b]quinoline-3,14(4H,12H)-dione] stands 17.6 nM; under `CC[C@@]1(O)C(=O)OCc2c1cc1n(c2=O)Cc2c-1nc1cc(F)c(C)cc1c2CN1CCC(O)CC1` [Example 16, (S)-4-ethyl-8-fluoro-4-hydroxy-11-((4-hydroxypiperidin-1-yl)methyl)-9-methyl-1H-pyrano[3′,4′:6,7] indolizino[1,2-b]quinoline-3,14(4H,12H)-dione], 81 nM.
On to `CC[C@@]1(O)C(=O)OCc2c1cc1n(c2=O)Cc2c-1nc1cc(F)c(C)cc1c2CN1CCCC(O)C1` (stereo partly drawn) [Example 17, (4S)-4-ethyl-8-fluoro-4-hydroxy-11-((3-hydroxypiperidin-1-yl)methyl)-9-methyl-1H-pyrano[3′,4′:6,7] indolizino[1,2-b]quinoline-3,14(4H,12H)-dione], for which the “relative A549 cytotoxic potency in words” value was “most potent compound” and the IC50 was found to be 38 nM.
In the case of `CC[C@@]1(O)C(=O)OCc2c1cc1n(c2=O)Cc2c-1nc1cc(F)c(C)cc1c2CN1CCC[C@@H](O)C1` [Example 18, (S)-4-ethyl-8-fluoro-4-hydroxy-11-(((R)-3-hydroxypiperidin-1-yl)methyl)-9-methyl-1H-pyrano[3′,4′:6,7] indolizino[1,2-b]quinoline-3,14(4H,12H)-dione], the half-inhibitory concentration (IC50) worked out at 19.7 nM.
On to `CC[C@@]1(O)C(=O)OCc2c1cc1n(c2=O)Cc2c-1nc1cc(F)c(C)cc1c2CN1CCC[C@H](O)C1` [Example 19, (S)-4-ethyl-8-fluoro-4-hydroxy-11-(((S)-3-hydroxypiperidin-1-yl)methyl)-9-methyl-1H-pyrano[3′,4′:6,7] indolizino[1,2-b]quinoline-3,14(4H,12H)-dione], for which the IC50 came to 15.7 nM. Also, where the note is “human, 3 days”, the “relative A549 cytotoxic potency in words” value was “more potent than Example 17”.
`CC[C@@]1(O)C(=O)OCc2c1cc1n(c2=O)Cc2c-1nc1cc(F)c(C)cc1c2CN1C2CCC1(CO)CC2` [Example 20, (S)-4-ethyl-8-fluoro-4-hydroxy-11-((1-(hydroxymethyl)-7-azabicyclo[2.2.1]heptan-7-yl)methyl)-9-methyl-1H-pyrano[3′,4′:6,7] indolizino[1,2-b]quinoline-3,14(4H,12H)-dione]: the IC50 stood at 24.1 nM.
The same measure, in the same setting: the value for `CC[C@@]1(O)C(=O)OCc2c1cc1n(c2=O)Cc2c-1nc1cc(F)c(C)cc1c2CN1CCCC1(C)CO` (stereo partly drawn) [Example 21, (4S)-4-ethyl-8-fluoro-4-hydroxy-11-((2-(hydroxymethyl)-2-methylpyrrolidin-1-yl)methyl)-9-methyl-1H-pyrano[3′,4′:6,7] indolizino[1,2-b]quinoline-3,14(4H,12H)-dione] was 55 nM.
On the same count and under the same terms, the value for `CC[C@@]1(O)C(=O)OCc2c1cc1n(c2=O)Cc2c-1nc1cc(F)c(C)cc1c2CN1CC(C)(C)C[C@@H]1CO` [Example 22, (S)-4-ethyl-8-fluoro-4-hydroxy-11-(((R)-2-(hydroxymethyl)-4,4-dimethylpyrrolidin-1-yl)methyl)-9-methyl-1H-pyrano[3′,4′:6,7] indolizino[1,2-b]quinoline-3,14(4H,12H)-dione] was 14.3 nM.

For the origin of these results see patent US20250367308A1, “LIGAND-DRUG CONJUGATE OF CAMPTOTHECIN ANALOGS, INTERMEDIATES, PREPARATION METHOD THEREFOR, PHARMACEUTICAL COMPOSITION AND APPLICATION THEREOF” (SHANGHAI MICURX PHARMACEUTICAL CO.,LTD., priority 2022, published 2025).
